Literature values as cited in patent publication US7183293B2, “Ether derivatives useful as inhibitors of PDE4 isozymes” (Pfizer Inc., priority 2001, dated 2007).

How the values were obtained:
[1] = tested on: lipopolysaccharide-induced mesenteric blood flow fall; conditions: dogs
[2] = tested on: lipopolysaccharide-induced bowel erythrocyte extravasation; conditions: rats; for lipopolysaccharide-induced bowel erythrocyte extravasation: pretreatment i.p. 3×
bone loss = conditions: serial oral administrations
[3] = tested on: mineralized nodule formation and osteoclast-like cell formation
bronchodilation = conditions: in vivo
[4] = in vivo
canine tracheal PDE4 = conditions: at 100 nM
[5] = tested on: dextran sulfate induced colitis; conditions: rat
5-lipoxygenase [6] = conditions: in vivo
5-lipoxygenase [7] = conditions: a number of species
[8] = tested on: mean pulmonary artery pressure; conditions: oral administration, clinical conditions
PDE4B mutant enzyme = conditions: alanine for aspartate in the catalytic region
[9] = tested on: collagen induced arthritis
[10] = tested on: experimental allergic encephalomyelitis; conditions: marmoset
[11] = tested on: T-cell mediated hepatic failure
psoriatic lesions = conditions: in vivo
[12] = tested on: FEV1 and forced vital capacity
[13] = tested on: LPS-stimulated ex vivo TNF release and PHA induced lymphocyte proliferation; conditions: oral dose of 300 mg
[14] = tested on: antigen-induced bronchospasm; conditions: rat
human PDE4B2B = human PDE4B2B (Homo sapiens, UniProt Q07343)
SCW-induced arthritis = conditions: in vivo
rheumatoid arthritis = tested on: rheumatoid arthritis; parameters: dose or concentration left out as unconfirmed; conditions: 35 patients
PDE4D = PDE4D (Homo sapiens, UniProt Q08499)
PDE4D, sequence (Q08499 whole entry, species assumed): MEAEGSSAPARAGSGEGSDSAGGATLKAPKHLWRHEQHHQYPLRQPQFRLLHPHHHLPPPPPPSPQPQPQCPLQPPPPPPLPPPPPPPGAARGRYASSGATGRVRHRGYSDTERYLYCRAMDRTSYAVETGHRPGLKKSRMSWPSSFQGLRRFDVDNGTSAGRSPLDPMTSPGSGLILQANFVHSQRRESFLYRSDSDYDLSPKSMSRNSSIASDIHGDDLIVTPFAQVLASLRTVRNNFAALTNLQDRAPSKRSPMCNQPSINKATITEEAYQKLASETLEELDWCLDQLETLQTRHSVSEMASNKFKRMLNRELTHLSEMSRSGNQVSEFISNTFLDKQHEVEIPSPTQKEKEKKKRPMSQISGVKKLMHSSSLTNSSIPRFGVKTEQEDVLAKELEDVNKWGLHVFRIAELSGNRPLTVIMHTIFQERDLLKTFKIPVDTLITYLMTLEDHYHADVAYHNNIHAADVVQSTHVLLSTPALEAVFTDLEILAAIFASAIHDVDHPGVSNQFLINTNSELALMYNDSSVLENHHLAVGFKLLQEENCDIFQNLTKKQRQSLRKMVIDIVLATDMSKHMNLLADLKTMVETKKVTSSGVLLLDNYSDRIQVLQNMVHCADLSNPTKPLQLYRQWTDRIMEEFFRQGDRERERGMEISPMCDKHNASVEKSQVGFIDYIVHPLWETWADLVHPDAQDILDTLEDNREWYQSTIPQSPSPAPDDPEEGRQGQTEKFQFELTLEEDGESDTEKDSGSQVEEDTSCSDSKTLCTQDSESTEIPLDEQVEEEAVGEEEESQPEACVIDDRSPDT

human PDE4B2B, sequence (Q07343 1-564 isoform Q07343-2): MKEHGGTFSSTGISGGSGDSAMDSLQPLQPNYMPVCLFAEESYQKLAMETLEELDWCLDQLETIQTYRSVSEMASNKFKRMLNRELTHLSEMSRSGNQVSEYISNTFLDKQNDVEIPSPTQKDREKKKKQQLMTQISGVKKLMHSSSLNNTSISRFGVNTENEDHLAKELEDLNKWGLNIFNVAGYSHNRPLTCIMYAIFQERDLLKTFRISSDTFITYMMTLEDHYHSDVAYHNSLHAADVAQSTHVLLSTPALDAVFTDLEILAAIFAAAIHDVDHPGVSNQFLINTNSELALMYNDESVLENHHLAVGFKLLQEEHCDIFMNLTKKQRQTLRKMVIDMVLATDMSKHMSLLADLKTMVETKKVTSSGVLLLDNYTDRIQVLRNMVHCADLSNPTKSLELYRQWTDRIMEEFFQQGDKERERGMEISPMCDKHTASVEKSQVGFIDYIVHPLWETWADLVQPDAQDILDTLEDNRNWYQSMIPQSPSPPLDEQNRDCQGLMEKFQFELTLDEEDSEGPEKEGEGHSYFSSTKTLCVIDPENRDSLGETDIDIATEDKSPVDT

SMILES: CCCn1c(=O)c2c(C)nc(CC)n2c2nc(OC)ccc21 [Example D-22888]
- rhinorrhea (rhinorrhea; antigen-challenged pig): inhibit rhinorrhea
- anti-allergic effect (rhinorrhea; pig, in vivo): strong anti-allergic affect

SMILES: CCCCn1c(=O)c2c(ncn2CC(C)=O)n(CCCC)c1=O [denbufylline]
- lipopolysaccharide induced intestinal hypoperfusion [1]: attenuated
- lipopolysaccharide induced erythrocyte extravasation [2]: attenuated
- bone mineral density of femurs (bone loss): inhibit the decrease in the bone mineral density
- number of mineralized nodules [3]: increase in the number of mineralized nodules

SMILES: COc1cc2c(cc1OC)[C@@H]1CN(C)CC[C@@H]1N=C2c1ccc(NC(C)=O)cc1 [benafentrine]
- bronchodilation (bronchodilation): bronchodilation only when administered by inhalation

SMILES: O=c1c2cccnc2n(-c2cccc([N+](=O)[O-])c2)c(=O)n1Cc1ccncc1 [RS-23,544]
- emesis / nausea and vomiting [4]: elicit emesis

SMILES: Clc1nc2c(N3CCCC3)nc(N3CCNCC3)nc2nc1NCc1ccccc1 [Formula (0.0.55)]
- inhibition of the growth of tumor cells (tumor cells): micromolar concentrations

SMILES: COc1ccc(C(=O)Cc2c(Cl)cncc2Cl)c2c1OCCCCO2 [Formula (0.0.49)]
- inhibition of canine tracheal PDE4 (canine tracheal PDE4): almost complete inhibition

SMILES: CCCn1c(=O)c2[nH]cnc2n(-c2ccc(Cl)cc2)c1=O [LAS31025]
- effects in dextran sulfate induced colitis (bleeding and inflammatory markers) [5]: beneficial effects comparable to prednisolone

SMILES: C[C@H](C#Cc1ccc(Oc2ccc(F)cc2)o1)N(O)C(N)=O [Abbott-79175]
- duration of action (5-lipoxygenase [6]): longer duration of action than zileuton

SMILES: CC(=O)CCCCn1c(=O)c2c(ncn2C)n(C)c1=O [pentoxifylline]
- lipopolysaccharide-induced bowel erythrocyte extravasation [2]: reduces

SMILES: COc1ccc(C2CNC(=O)NC2)cc1O[C@H]1C[C@@H]2CC[C@H]1C2 [CP-80,633]
- emesis / nausea and vomiting [4]: elicit emesis

SMILES: COC1(c2cc(F)cc(OCc3ccc4c(ccc(=O)n4C)c3)c2)CCOCC1 [ZD-2138]
- oral activity (5-lipoxygenase [7]): highly active orally

SMILES: CCCCn1c(=O)c2c(ncn2CC(C)=O)n(CCCC)c1=O [debufylline]
- lipopolysaccharide-induced bowel erythrocyte extravasation [2]: reduces

SMILES: Cc1[nH]c(=O)c(C#N)cc1-c1ccncc1 [milrinone]
- adverse events (bronchodilation): tachycardia and hypotension
- bronchodilation (bronchodilation): short-lived bronchodilation
- protection against induced bronchoconstriction (bronchodilation): slight degree of protection
- mean pulmonary artery pressure [8]: decreases
- relaxant activities of isoproterenol and forskolin (pulmonary artery rings): same effect

SMILES: CSc1ccc(C(=O)c2[nH]c(=O)[nH]c2C)cc1 [enoximone]
- mean pulmonary artery pressure [8]: decreases

SMILES: COc1ccc(C2CNC(=O)C2)cc1OC1CCCC1 (centres unmarked) [rolipram]
- lipopolysaccharide induced intestinal hypoperfusion [1]: attenuated
- stimulation of acid secretion (gastric parietal cells): very potent stimulator
- inhibition of mutant PDE4B (PDE4B mutant enzyme): critical for inhibition
- development of the disease ([9]; 3 mg/kg twice daily when arthritis was apparent): progression of severity was halted
- TNF-α and IFN-γ mRNA expression in regional lymph nodes ([9]; rat, in vivo): strong down-regulation
- clinical signs and MRI abnormalities [10]: suppress the appearance of clinical signs
- effects in dextran sulfate induced colitis (bleeding and inflammatory markers) [5]: beneficial effects comparable to prednisolone
- lipopolysaccharide induced erythrocyte extravasation [2]: attenuated
- lipopolysaccharide-induced bowel erythrocyte extravasation [2]: reduces
- plasma activities of ALT, AST and SDH ([11]; 0.1 to 10 mg/kg i.p., mice): dose-dependently inhibited
- concanavalin A-induced IL-4 release ([11]; mouse, in vivo): suppress
- relaxant activities of isoproterenol and forskolin (pulmonary artery rings): potentiates

SMILES: CCCCOc1cc(CC2CNC(=O)N2)ccc1OC (centres unmarked) [Ro 20-1724]
- adverse systemic or cutaneous effects (psoriatic lesions): without adverse systemic or cutaneous effects

SMILES: COc1ccc([C@]2(C#N)CC[C@@H](C(=O)O)CC2)cc1OC1CCCC1 [SB-207,499]
- FEV and forced vital capacity (FVC) ([12]; 15 mg twice a day for six weeks): increrases
- FEV1 ([12]; four week trial, six week study, 15 mg twice a day): improved FEV1

SMILES: CCNc1ncn(Cc2ccc(OC)c(OC3CCCC3)c2)c2nc(C(C)C)nc1-2 [Example V-11294A]
- reducing TNF levels and lymphocyte proliferation [13]: effective

SMILES: COc1ccc(C(=O)Nc2c(C)noc2C)cc1OC1CCCC1 [RPR-132294]
- inhibition of antigen-induced bronchospasm [14]: activity

SMILES: COC(=O)N1C[C@H](c2ccc(OC)c(OC3CCCC3)c2)[C@@](C)(C(C)=O)C1 (racemic) [Formula (0.0.61), (R,R)-(+/−)-methyl-3-acetyl-4-[3-(cyclopentyloxy)-4-methoxyphenyl]-3-methyl-1-pyrrolidine carboxylate]
- affinity to the catalytic and the HARB sites (human PDE4B2B): equal affinity

SMILES: COc1ccc(CC2CNC(=O)N2)cc1OC1CCCC1 (centres unmarked) [Ro-20-1724]
- inhibition of mutant PDE4B (PDE4B mutant enzyme): lose potency

SMILES: COc1ccc(C(=O)Nc2c(Cl)cncc2Cl)cc1OC1CCCC1 [RP-73,401]
- inhibition of mutant PDE4B (PDE4B mutant enzyme): lose potency
- emesis / nausea and vomiting [4]: elicit emesis

SMILES: COc1ccc(C(=O)Nc2c(Cl)cncc2Cl)cc1OC1CCCC1 [RP73401]
- amelioration of disease (joint destruction, synovitis, fibrosis) (SCW-induced arthritis): significant amelioration of disease
- clinical improvement, C-reactive protein and IL-6 serum levels (rheumatoid arthritis): positive trend towards clinical improvement

SMILES: O=c1c2cccnc2n(-c2cccc([N+](=O)[O-])c2)c(=O)n1Cc1ccncc1 [RS-25,344]
- potency against PDE4 subtypes (PDE4D): more potent against PDE4D

SMILES: Nc1nc2c([nH]1)c(=O)n(CC1CC1)c(=O)n2CC1CC1 [BRL-61,063]
- emesis / nausea and vomiting [4]: nausea and vomiting
